According to ChEMBL document CHEMBL1137847, “3-D-QSAR of N-substituted 4-amino-3,3-dialkyl-2(3H)-furanone GABA receptor modulators using molecular field analysis and receptor surface modelling study” (Bioorg Med Chem Lett, 2004):

Molecular target: GABA-A receptor; anion channel (Homo sapiens) (UniProt P14867+P47870+P18507+P28472+P48169+Q99928+Q9UN88+P34903+O00591+O14764+Q8N1C3+P18505+P78334+P47869+P31644+Q16445)
Assay: Gamma-aminobutyric acid A receptor modulating activity (expressed as biological activity).
Format: protein-complex assay

Compound | BA
CCCC1(CCC)C(=O)OC[C@H]1NC(=O)OCC | 426
C=CCOC(=O)N[C@@H]1COC(=O)C1(CCC)CCC | 765
CCCC1(CCC)C(=O)OC[C@H]1NC(=O)OC(C)(C)C | 46
O=C1C[C@H](NCc2ccccc2)CO1 | 0
CCCC1(CCC)C(=O)OC[C@H]1NS(=O)(=O)N(C)C | -1
CCCC1(CCC)C(=O)OC[C@H]1NS(=O)(=O)c1ccc(C(F)(F)F)cc1 | -44
CCCC1(CCC)C(=O)OC[C@H]1NS(=O)(=O)c1ccc(Cl)cc1 | 23

The remaining lines, values ahead:

BA | Compound
47 | O=C1C[C@H](NC(=O)OCc2ccccc2)CO1
279 | CCCC1(CCC)C(=O)OCC1NC(=O)OCc1ccccc1 (single isomer, unassigned)
420 | CCCC1(CCC)C(=O)OC[C@H]1NC(=O)c1ccccc1
4 | CCCC1(CCC)C(=O)OC[C@H]1NS(=O)(=O)c1ccc2ccccc2c1
104 | CCCC1(CCC)C(=O)OC[C@H]1NC(=O)OCc1ccccc1
-1 | C=CC[C@@H]1C(=O)OC[C@H]1NCc1ccccc1
330 | CCCC1(CCC)C(=O)OC[C@H]1NC(=O)Oc1ccccc1
115 | C=CCC1(CC=C)C(=O)OC[C@H]1NCc1ccccc1
-22 | CCCC1(CCC)C(=O)OC[C@H]1NS(=O)(=O)c1ccc(OC)cc1
73 | C=CC[C@H]1C(=O)OC[C@H]1NCc1ccccc1
-16 | CCCC1(CCC)C(=O)OC[C@H]1NS(=O)(=O)c1cccs1
